# Test results published in PMC12797170, “Potent Competitive Inhibitors of Ecto-5′-nucleotidase (CD73) based on 6‑(Het)aryl-7-deazapurine Ribonucleoside 5′‑O‑Bisphosphonates” (ACS Pharmacology & Translational Science, 2025).
# Tests used:
# [1] = biological target: T1, recombinant human CD73 (hCD73) (Homo sapiens, UniProt P21589); assay: CD73 activity assay on recombinant human CD73; assay type: biochemical; settings: ΔGexp = RT ln Ki
# T1 sequence (P21589 27-574): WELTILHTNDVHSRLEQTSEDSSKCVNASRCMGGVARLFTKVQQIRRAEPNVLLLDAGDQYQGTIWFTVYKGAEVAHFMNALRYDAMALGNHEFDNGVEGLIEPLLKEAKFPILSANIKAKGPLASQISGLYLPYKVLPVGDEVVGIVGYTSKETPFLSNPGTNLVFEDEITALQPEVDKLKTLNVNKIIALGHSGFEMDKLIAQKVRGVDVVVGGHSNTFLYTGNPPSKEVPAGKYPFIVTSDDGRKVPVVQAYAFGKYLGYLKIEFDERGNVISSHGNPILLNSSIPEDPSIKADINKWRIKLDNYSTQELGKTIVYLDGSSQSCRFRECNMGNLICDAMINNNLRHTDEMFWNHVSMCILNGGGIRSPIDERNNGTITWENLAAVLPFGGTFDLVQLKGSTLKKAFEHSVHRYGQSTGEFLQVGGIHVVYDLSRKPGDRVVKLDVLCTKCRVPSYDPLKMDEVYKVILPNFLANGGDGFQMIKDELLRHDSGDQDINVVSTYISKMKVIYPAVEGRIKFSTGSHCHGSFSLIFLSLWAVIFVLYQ
# [2] = Plasma protein binding, equilibrium dialysis, human plasma; assay type: in vitro ADME; settings: undiluted plasma
# [3] = Plasma protein binding, mouse plasma; assay type: in vitro ADME; settings: mouse, plasma
# [4] = Kinetic solubility in PBS; assay type: physicochemical; settings: phosphate-buffered saline, pH 7.4, aqueous buffer, kinetic from dmso stock
# Procedure, shortened: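 DMSO stocks diluted into PBS pH 7.4 to 100 μM and shaken 2 h at room temperature in duplicate, then filtered by centrifugation. Filtrates diluted 1:99 in 50% acetonitrile. Quantified by Echo-MS against calibration standards spanning 0.05–4 μM.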
# hERG potassium channel = hERG potassium channel (Homo sapiens, UniProt Q12809); assay: hERG inhibition assay (thallium flux, HEK293-hERG cells); assay type: cell-based; settings: for inhibition of hERG: at 100 μM
# Procedure: The study was performed by Bienta (Enamine Biology Services). HEK293-hERG cells (stably expressing human potassium channel hERG – human Ether-a-go-go Related Gene) were cultured in DMEM/F-12 medium supplemented with 10% FBS, 100 U/mL penicillin, 100 μg/mL streptomycin, and 500 μg/mL G418. The assay was performed according to the manufacturer’s instructions. Cells were seeded into a 384-well poly-D-lysine, clear-bottom microtiter plate (8000 cells/well) in DMEM/F-12 medium supplemented with 5% FBS, 100 U/mL penicillin, 100 μg/mL streptomycin 24 h prior to assay. After 24 h of cell growth, the conditioned medium was substituted with the Dye Loading Solution comprising thallium-sensitive dye, followed by incubation for 1 h in a CO2 incubator. After the incubation, the Dye Loading Solution was substituted with a 15 μL/well mixture of the Assay Buffer and the TRS. Then, 5 μL of the test compound diluted in the assay buffer (0.5% DMSO final concentration) was added to each well of the plate and incubated at room temperature for 30 min hERG inhibition by test compounds was assessed at 3 concentrations of 10–50–100 μM. All test points were performed in quadruplicates. […] DMSO was used as a negative control, and Haloperidol was used as a reference compound to verify the assay validity. Haloperidol was dissolved in 100% DMSO at a concentration of 20 mM and stored at – 20 °C (for no more than a month). Haloperidol was assessed at the final concentrations ranging from 0.023 μM to 50.0 μM (8 points, 3-fold serial dilutions). The test compounds were dissolved in 100% DMSO at a concentration of 20 mM.
# [5] = test system: panel of CYP isoforms (1A2, 2C9, 2C19, 2D6, and 3A4); assay: CYP450 inhibition, panel statement; assay type: biochemical, human; settings: up to 50 μM
# Procedure: The study was performed by Bienta (Enamine Biology Services). The potential for CYP450 inhibition (isoforms 1A2, 2C9, 2C19, 2D6, and 3A4) was assessed by performing in vitro inhibition studies using fluorogenic CYP450 substrates with the corresponding CYP450 enzymes and NADPH regeneration system (Vivid CYP450 Screening Kits) with some minor changes to the manufacturer’s protocols. The fluorescent signal produced from the reaction is directly proportional to the cytochrome P450 activity. In the cases when tested compounds interfere with the CYP450 enzyme–substrate reaction, the fluorescent signal decreases.
# Briefly, the tested compounds were first dissolved in DMSO at 100× concentration (1 mM) and diluted in buffer to 2.5× concentration (25 μM). […] After 10 min of preincubation, the enzymatic reaction was initiated by the addition of a mix of NADPH and the appropriate CYP450 substrates. The plate was incubated for the desired reaction time (25 min for CYP1A2, CYP2C9, CYP2D6, and CYP3A4; 60 min for CYP2C19) after which Stop Reagent was added and fluorescence measured using SpectraMax Paradigm Multi-Mode Microplate Reader. All test points were performed in quadruplicates at a concentration of 10 μM (1% DMSO).
# in vitro = settings: human, plasma
# [6] = Tables 1 and 3, human plasma as printed in footnote, read-out: fup, fraction unbound in human plasma
# [7] = human plasma protein binding, read-out: PPB (hu) (converted)
# [8] = mouse plasma protein binding, read-out: PPB (m) (converted)
# [9] = Tables 2 and 4, mouse plasma, read-out: fup, fraction unbound in mouse plasma
# Sequence of hERG potassium channel (Q12809 whole entry): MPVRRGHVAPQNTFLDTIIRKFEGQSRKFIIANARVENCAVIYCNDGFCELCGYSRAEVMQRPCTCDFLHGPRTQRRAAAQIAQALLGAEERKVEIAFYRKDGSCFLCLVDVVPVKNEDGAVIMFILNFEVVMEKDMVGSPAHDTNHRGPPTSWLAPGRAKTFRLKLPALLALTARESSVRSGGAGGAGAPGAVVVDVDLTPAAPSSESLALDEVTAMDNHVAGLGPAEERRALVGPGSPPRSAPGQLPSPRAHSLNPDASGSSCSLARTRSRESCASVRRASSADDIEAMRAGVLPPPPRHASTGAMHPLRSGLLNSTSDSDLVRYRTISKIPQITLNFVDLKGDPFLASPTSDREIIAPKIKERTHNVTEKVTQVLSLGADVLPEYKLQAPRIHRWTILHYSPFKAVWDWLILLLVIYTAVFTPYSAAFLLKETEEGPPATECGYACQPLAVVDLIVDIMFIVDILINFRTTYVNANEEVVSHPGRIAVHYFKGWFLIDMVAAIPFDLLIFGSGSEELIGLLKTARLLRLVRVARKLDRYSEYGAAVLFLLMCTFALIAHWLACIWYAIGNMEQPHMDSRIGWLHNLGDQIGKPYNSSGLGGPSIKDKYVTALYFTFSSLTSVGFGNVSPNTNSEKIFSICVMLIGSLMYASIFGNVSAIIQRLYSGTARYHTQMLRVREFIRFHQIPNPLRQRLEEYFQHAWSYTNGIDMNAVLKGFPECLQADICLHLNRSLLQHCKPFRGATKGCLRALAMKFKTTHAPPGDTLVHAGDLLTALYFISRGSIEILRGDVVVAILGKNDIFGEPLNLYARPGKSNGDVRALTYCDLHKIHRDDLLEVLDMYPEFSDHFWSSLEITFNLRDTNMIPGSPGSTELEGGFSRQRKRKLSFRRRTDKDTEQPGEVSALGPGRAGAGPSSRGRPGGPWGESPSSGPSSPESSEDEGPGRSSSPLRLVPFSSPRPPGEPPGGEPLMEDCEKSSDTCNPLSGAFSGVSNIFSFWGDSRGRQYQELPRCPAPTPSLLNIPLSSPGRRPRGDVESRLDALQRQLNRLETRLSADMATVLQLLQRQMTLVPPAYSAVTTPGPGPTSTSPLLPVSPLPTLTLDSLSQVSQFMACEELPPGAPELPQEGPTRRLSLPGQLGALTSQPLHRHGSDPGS
Structure (SMILES),"dG_exp, experimental binding free energy [1]","fraction unbound at 4 h, 100 µM [2, 6]","fraction unbound at 4 h, 100 µM [2, 7]","fraction unbound at 4 h, 100 µM [3, 8]",solubility at 2 h [4],hERG % inhibition at 100 µM (hERG potassium channel),inhibition of hERG (hERG potassium channel),inhibition of a panel of CYP isoforms [5],half-life at 10 µM (in vitro),"fraction unbound at 4 h, 100 µM [3, 9]"
O=P(O)(O)CP(=O)(O)OC[C@H]1O[C@@H](n2ccc3c(-c4ccc5ccccc5c4)ncnc32)[C@H](O)[C@@H]1O [4A.7],–13.4 kcal/mol,0.31,0.011,0.315,> 100 µM,1%,no inhibition,no inhibition,> 2 h,
O=P(O)(O)CP(=O)(O)OC[C@H]1O[C@@H](n2ccc3c(-c4cccc5c4CCCC5)nc(Cl)nc32)[C@H](O)[C@@H]1O [7B.12],–15.9 kcal/mol,,0.005,0.216,85 µM,3%,no inhibition,no inhibition,> 2 h,0.22
O=P(O)(O)CP(=O)(O)OC[C@H]1O[C@@H](n2ccc3c(-c4cccc5ccncc45)ncnc32)[C@H](O)[C@@H]1O [4A.18],–14.1 kcal/mol,,0.195,0.727,56 µM,6%,no inhibition,no inhibition,> 2 h,
O=P(O)(O)CP(=O)(O)OC[C@H]1O[C@@H](n2ccc3c(-c4ccc(F)c5ccccc45)nc(Cl)nc32)[C@H](O)[C@@H]1O [7B.28],–16.6 kcal/mol,,≤ 0.01,0.232,> 100 µM,6%,no inhibition,no inhibition,> 2 h,0.23
Cc1nc(-c2ccc3ccccc3c2)c2ccn([C@@H]3O[C@H](COP(=O)(O)CP(=O)(O)O)[C@@H](O)[C@H]3O)c2n1 [18E.7],–14.6 kcal/mol,,0.004,0.221,78 µM,,,,> 2 h,0.22
"O=P(O)(O)CP(=O)(O)OC[C@H]1O[C@@H](n2ccc3c(-c4ccc5c(c4)CCCC5)nc(I)nc32)[C@H](O)[C@@H]1O [27H.23, [(5-{[2-Iodo-4-(5,6,7,8-tetrahydronaphthalen-2-yl)-7H-pyrrolo[2,3-d]pyrimidin-7-yl]-β-D-ribofuranosyl}oxy)phosphonomethyl]phosphonic Acid]",–16.1 kcal/mol,0.036,≤ 0.01,0.036,> 100 µM,7%,no inhibition,no inhibition,> 2 h,
Cc1nc(-c2cccc3ccccc23)c2ccn([C@@H]3O[C@H](COP(=O)(O)CP(=O)(O)O)[C@@H](O)[C@H]3O)c2n1 [18E.6],–13.9 kcal/mol,,0.045,0.515,89 µM,2%,no inhibition,no inhibition,> 2 h,0.51
O=P(O)(O)CP(=O)(O)OC[C@H]1O[C@@H](n2ccc3c(-c4ccc5c(c4)CCCC5)nc(Cl)nc32)[C@H](O)[C@@H]1O [7B.23],–16.3 kcal/mol,,≤ 0.01,0.059,84 µM,5%,no inhibition,no inhibition,> 2 h,0.06
